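Each compound was tested at five concentrations against cells in 96-well plates for 48 hours. At the GI50, growth is halved.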 Activity calls are given as the source filed them. Rule as the data show it: active = GI50 up to about 1.1 µM and inactive = higher.
Assays:
Assay in all cases: DTP human tumour cell line panel, 48 h
786-0 = test system: 786-0
A498 = test system: A498
HCT-116 = test system: HCT-116
HCT-15 = test system: HCT-15
HT-29 = test system: HT-29
Hs-578T = test system: Hs-578T
IGROV-1 = test system: IGROV-1
MCF7 = test system: MCF7
NCI-H226 = test system: NCI-H226
NCI-H23 = test system: NCI-H23
NCI-H522 = test system: NCI-H522
OVCAR-3 = test system: OVCAR-3
SF-295 = test system: SF-295
SK-MEL-28 = test system: SK-MEL-28
SK-MEL-2 = test system: SK-MEL-2
SK-MEL-5 = test system: SK-MEL-5
TK-10 = test system: TK-10
UACC-257 = test system: UACC-257
SR = test system: SR
HL-60 = test system: HL-60

Row | SMILES | GI50 (786-0) | GI50 (A498) | GI50 (HCT-116) | GI50 (HCT-15) [µM] | GI50 (HT-29) | GI50 (Hs-578T) | GI50 (IGROV-1) | GI50 (MCF7) | GI50 (NCI-H226) | GI50 (NCI-H23) | GI50 (NCI-H522) | GI50 (OVCAR-3) | GI50 (SF-295) | GI50 (SK-MEL-28) | GI50 (SK-MEL-2) | GI50 (SK-MEL-5) | GI50 (TK-10) | GI50 (UACC-257) | GI50 (SR) | GI50 (HL-60)
1 | CC(=O)n1c(COS(C)(=O)=O)nc2ccccc21 | > 100 µM (inactive) | > 100 µM (inactive) | > 100 µM (inactive) | > 100 | > 100 µM (inactive) | > 100 µM (inactive) | 66.1 µM (inactive) | 79.3 µM (inactive) | > 100 µM (inactive) | > 100 µM (inactive) | > 100 µM (inactive) | 58.6 µM (inactive) | 54 µM (inactive) | > 100 µM (inactive) | > 100 µM (inactive) | > 100 µM (inactive) | > 100 µM (inactive) | > 100 µM (inactive) |  | 
2 | COC(C(=O)NN)c1ccccc1 (stereo not drawn) | > 100 µM (inactive) |  |  | > 100 | > 100 µM (inactive) | > 100 µM (inactive) | > 100 µM (inactive) | > 100 µM (inactive) | > 100 µM (inactive) | > 100 µM (inactive) | > 100 µM (inactive) | > 100 µM (inactive) | > 100 µM (inactive) | > 100 µM (inactive) | > 100 µM (inactive) | > 100 µM (inactive) | > 100 µM (inactive) | > 100 µM (inactive) | > 100 µM (inactive) | 
3 | c1ccc(C2SCc3nc4ccccc4n32)cc1 (stereo not drawn) | > 100 µM (inactive) | 40.6 µM (inactive) | 19.7 µM (inactive) | 44.4 | 46 µM (inactive) |  | 29.2 µM (inactive) |  | 17.8 µM (inactive) | 31.5 µM (inactive) | 18.9 µM (inactive) | 19.1 µM (inactive) | 23 µM (inactive) | 40.3 µM (inactive) | 29.6 µM (inactive) | 18.6 µM (inactive) | 52.4 µM (inactive) | 27.8 µM (inactive) | 25.8 µM (inactive) | 15.6 µM (inactive)
4 | CC(C)CCc1n[nH]c(=O)n1/N=C\c1ccccc1 | > 100 µM (inactive) | 49 µM (inactive) | > 100 µM (inactive) | > 100 | > 100 µM (inactive) | > 100 µM (inactive) | > 100 µM (inactive) |  | > 100 µM (inactive) | > 100 µM (inactive) | 85.7 µM (inactive) | > 100 µM (inactive) | > 100 µM (inactive) | > 100 µM (inactive) | 93.1 µM (inactive) | > 100 µM (inactive) | > 100 µM (inactive) | > 100 µM (inactive) |  | 
5 | N#Cc1c(-c2ccccc2)c(/N=N/c2ccc(Cl)cc2)c(=O)n2c1[nH]c1ccccc12 | 23.6 µM (inactive) | > 100 µM (inactive) | 31 µM (inactive) | > 100 |  |  | 73.1 µM (inactive) | > 100 µM (inactive) | 65.9 µM (inactive) | > 100 µM (inactive) | 79.4 µM (inactive) | > 100 µM (inactive) | 76.7 µM (inactive) | > 100 µM (inactive) | > 100 µM (inactive) | 55.8 µM (inactive) | 23.3 µM (inactive) | > 100 µM (inactive) |  | 
6 | Cc1nnc2n(c1=O)CCN2C | > 100 µM (inactive) |  | > 100 µM (inactive) | > 100 | > 100 µM (inactive) | > 100 µM (inactive) | > 100 µM (inactive) | > 100 µM (inactive) | > 100 µM (inactive) | > 100 µM (inactive) |  | > 100 µM (inactive) | > 100 µM (inactive) | > 100 µM (inactive) | > 100 µM (inactive) | > 100 µM (inactive) | > 100 µM (inactive) |  | > 100 µM (inactive) | > 100 µM (inactive)
7 | CC1(C)CC[C@]2(C(=O)O)CC[C@]3(C)C(=CC[C@@H]4[C@@]5(C)CC[C@@H]6OC(C)(C)OC[C@@]6(C)[C@@H]5CC[C@]43C)[C@H]2C1 | 10 µM (inactive) | 15.4 µM (inactive) | 5.33 µM (inactive) | 2.87 | 4.54 µM (inactive) |  | 11.4 µM (inactive) | > 10 µM (inactive) |  | 3.91 µM (inactive) | 7.71 µM (inactive) | 4.54 µM (inactive) | 5.18 µM (inactive) | 14.4 µM (inactive) | 17.3 µM (inactive) |  | 11.6 µM (inactive) | 13.2 µM (inactive) | 10.1 µM (inactive) | 8.51 µM (inactive)
8 | Clc1ccc(-c2c(C3=NCCN3)nnn2-c2ccccc2)cc1 | > 100 µM (inactive) | > 100 µM (inactive) | 83.4 µM (inactive) | > 100 | 68.7 µM (inactive) |  | > 100 µM (inactive) |  | > 100 µM (inactive) | > 100 µM (inactive) | > 100 µM (inactive) | > 100 µM (inactive) | > 100 µM (inactive) | > 100 µM (inactive) | 51.2 µM (inactive) | 97.1 µM (inactive) | 51.8 µM (inactive) | > 100 µM (inactive) | 49.2 µM (inactive) | > 100 µM (inactive)
9 | COc1ccc(N2C(=O)c3cccnc3S2(=O)=O)cc1 | > 100 µM (inactive) | > 100 µM (inactive) | > 100 µM (inactive) | > 100 | > 100 µM (inactive) |  | > 100 µM (inactive) | > 100 µM (inactive) | > 100 µM (inactive) | > 100 µM (inactive) | > 100 µM (inactive) | > 100 µM (inactive) | > 100 µM (inactive) | > 100 µM (inactive) | > 100 µM (inactive) |  |  | > 100 µM (inactive) | > 100 µM (inactive) | > 100 µM (inactive)
10 | COc1cc(O)c2c(=O)c3c(C)cccc3n(C)c2c1 | > 10 µM (inactive) | > 10 µM (inactive) | > 10 µM (inactive) | > 10 | > 10 µM (inactive) | > 10 µM (inactive) | > 10 µM (inactive) | > 10 µM (inactive) | > 10 µM (inactive) | > 10 µM (inactive) | > 10 µM (inactive) | > 10 µM (inactive) | > 10 µM (inactive) | > 10 µM (inactive) | > 10 µM (inactive) | > 10 µM (inactive) | > 10 µM (inactive) | > 10 µM (inactive) |  | 
11 | CCOC(=O)C1=C(O)C(=O)c2ccoc2C1=O | > 100 µM (inactive) | > 100 µM (inactive) | > 100 µM (inactive) | > 100 | > 100 µM (inactive) |  | > 100 µM (inactive) |  | > 100 µM (inactive) | > 100 µM (inactive) | > 100 µM (inactive) | > 100 µM (inactive) | > 100 µM (inactive) | > 100 µM (inactive) | > 100 µM (inactive) | > 100 µM (inactive) | > 100 µM (inactive) | > 100 µM (inactive) | > 100 µM (inactive) | > 100 µM (inactive)
12 | CC#COS(=O)(=O)c1ccc(C)cc1 | 44.4 µM (inactive) | > 10 µM (inactive) | 37.5 µM (inactive) | 79.8 | 45.9 µM (inactive) |  | > 100 µM (inactive) |  | 89.3 µM (inactive) | 65.6 µM (inactive) | 49.5 µM (inactive) | 60.5 µM (inactive) | > 100 µM (inactive) |  | > 100 µM (inactive) | 37.4 µM (inactive) | > 100 µM (inactive) | 47.5 µM (inactive) | 33.7 µM (inactive) | 26.4 µM (inactive)
13 | CC1(C)OC(=O)N(c2ccccc2)C12C=Cc1cc([N+](=O)[O-])ccc1O2 (stereo not drawn) | 77.3 µM (inactive) | 32.4 µM (inactive) | 33.3 µM (inactive) | 48.8 | 35.5 µM (inactive) | 19.5 µM (inactive) | 32.7 µM (inactive) |  | 44 µM (inactive) | 36.2 µM (inactive) | 25.8 µM (inactive) | 21.7 µM (inactive) | 37.5 µM (inactive) | 83.8 µM (inactive) | 33.4 µM (inactive) | 36.4 µM (inactive) | 39.4 µM (inactive) | 23.5 µM (inactive) | 19.6 µM (inactive) | 20.1 µM (inactive)
14 | N/C(=N\c1ccc(Cl)cc1)NS(=O)(=O)c1cc(Cl)c(Oc2ccc([N+](=O)[O-])cc2Cl)c(Cl)c1 | 18.9 µM (inactive) | 15.5 µM (inactive) | 16.7 µM (inactive) | 16.9 | 20.4 µM (inactive) | > 100 µM (inactive) | 15.8 µM (inactive) |  | 17.1 µM (inactive) | 16.8 µM (inactive) | > 100 µM (inactive) | 16.8 µM (inactive) | 17.4 µM (inactive) | 16.9 µM (inactive) | 20.5 µM (inactive) | 16.6 µM (inactive) | 18.2 µM (inactive) | 16.6 µM (inactive) | 18.9 µM (inactive) | 16.7 µM (inactive)
15 | CC(=O)n1[nH]c(=O)n(-c2ccc(Cl)cc2)c1=O | > 100 µM (inactive) |  | > 100 µM (inactive) | > 100 | > 100 µM (inactive) |  | > 100 µM (inactive) | > 100 µM (inactive) | > 100 µM (inactive) | > 100 µM (inactive) | > 100 µM (inactive) | > 100 µM (inactive) | > 100 µM (inactive) | > 100 µM (inactive) | > 100 µM (inactive) | > 100 µM (inactive) | > 100 µM (inactive) | > 100 µM (inactive) | > 100 µM (inactive) | > 100 µM (inactive)
16 | CC(=O)O[C@H]1CC2C(C3CCC(C(C)CCC(=O)O)[C@]31C)[C@H](OC(C)=O)C[C@@H]1CC3(CC[C@]21C)OOC1(CC[C@]2(C)C4C[C@H](OC(C)=O)[C@]5(C)C(C(C)CCC(=O)O)CCC5C4[C@H](OC(C)=O)C[C@@H]2C1)OO3 (stereo partly drawn) | 2.76 µM (inactive) |  | 1.75 µM (inactive) | 2.22 | 2.57 µM (inactive) | 1.5 µM (inactive) | 2.12 µM (inactive) | 2.7 µM (inactive) | 2.04 µM (inactive) | 1.64 µM (inactive) | 1.42 µM (inactive) | 1.8 µM (inactive) | 1.77 µM (inactive) | 4.09 µM (inactive) | 1.77 µM (inactive) | 1.55 µM (inactive) | 2.75 µM (inactive) | 2.15 µM (inactive) | 3.3 µM (inactive) | 1.51 µM (inactive)

— ChEMBL document CHEMBL1201862, “PubChem BioAssay data set” (2004)
